According to patent US7589123B2, “Chemical compounds” (Phytopharm PLC, priority 2006, dated 2009):

What was measured:
[1] = system: histamine-induced contractions in guinea pig ileum; assay: Inhibition of histamine-induced contractions in guinea pig ileum (Assay 3); details: Cavia porcellus, histamine 1.7 μM, read-out: Inhibition of histamine-induced contraction (%)
Description: (§1) Duncan Hartley derived male guinea pigs (325±25 g) were suppressed by CO2 overexposure, the abdominal cavity was exposed and ileal segments were removed. Small strips of ileum were suspended in organ baths containing Krebs solution (composition in g/l: NaCl 6.89, KCl 0.35, CaCl2 0.277, KH2PO4 0.163, MgSO4.7H2O 0.296, NaHCO3 2.1 glucose 1.8). The solution was kept at 32° C. and gassed with O2 (95%)-CO2 (5%) to maintain pH at 7.4. Mechanical activity was recorded by means of isotonic transducers. A resting tension of 1 g was applied to muscle strips before being equilibrated for 1 h, prior to test compound addition. Each preparation was washed twice at 15 min intervals during the equilibration.
(§2) Histamine (1.7 μM; approximately EC60-70) or 5-hydroxytryptamine (5-HT, 2.6 μM; approximately EC60-70) was applied for 5 min and the amplitude of the contraction recorded. The histamine or 5-HT was then washed out until the ileal tissue returned to baseline. Five min after returning to baseline test compound (3 and 30 μM) was applied and the amplitude of the contraction (if any) was recorded. In the continuous presence of test compound, histamine or 5-HT was re-applied and the inhibition of the response was recorded.

[2] = system: 5-HT-induced contractions in guinea pig ileum; assay: Inhibition of 5-HT-induced contractions in guinea pig ileum (Assay 3); details: Cavia porcellus, 5-HT 2.6 μM, read-out: Inhibition of 5-HT-induced contraction (%)
Description: as §1, §2

[3] = system: α-smooth muscle actin (α-SMA) mRNA; assay: Anti-remodelling activity in human lung fibroblasts (HFL1): TGFβ-induced α-SMA mRNA (Assay 4); format: cell-based; details: Homo sapiens, HFL1 cells, TGFβ 10 ng/ml, 24 h, read-out: Inhibition of α-SMA mRNA synthesis (%)
Description: A human foetal lung fibroblast cell line (HFL1 cells; ATCC accession number CCl-153) was used in this assay. The cells were cultured in medium containing a low level of foetal bovine serum (FBS; 0.1%) for 24 h. After 24 h of culturing the medium was changed to: (a) Control medium (medium containing 10% FBS, 1% phosphate saline and 0.5 mM L-glutamine), (b) Control medium and transforming growth factor beta (TGFβ; 10 ng/ml), (c) Control medium and TGFβ and test compounds (3 and 30 μM). The medium was collected after 24 h and the total mRNA extracted in Tri-reagent. The level of mRNA coding for α-smooth muscle actin (α-SMA) was assessed by real-time reverse transcription-polymerase chain reaction (rtRT-PCR) using primer couples that allow the amplification of α-SMA mRNA. Liver glyceraldehydes 3-phosphate dehydrogenase (GADPH) was used as a reference marker in this experiment. The inhibition of the TGTβ-induced overexpression of α-SMA mRNA by the test compounds was quantified.

[4] = system: IL-1α-induced PGE2 release; assay: IL-1α-induced PGE2 release in human diploid lung fibroblasts (WI-38) (Assay 5); format: cell-based; details: Homo sapiens, WI-38 cells, IL-1α 1 nM, overnight
Description: (§3) Human diploid lung fibroblasts (WI-38 cells) were incubated overnight in the presence of IL-1α (1 nM) and test compound (3 and 30 μM) in modified Eagle medium at pH 7.3 containing foetal bovine serum (10%) at 37° C. The supernatant was assayed by radioimmunoassay for released PGE2 and the inhibition of PGE2 by test compound calculated (Table 10). The viability of the cells was then assessed by washing with Roswell Park Memorial Institute medium and adding Alamar Blue reagent before being incubated at 37° C. for 4 h. Living cells take up Alamar Blue and emit fluorescence when excited. Fluorescence intensity was measured using a SpectroFluor Plus plate reader with excitation at 530 nm and emission at 590 nm (Table 10).

[5] = system: WI-38 cells; assay: Viability of WI-38 cells, Alamar Blue (Assay 5); format: cell-based, human
Description: as §3

[6] = biological target: T1, 5-lipoxygenase (Homo sapiens, UniProt P09917); assay: 5-lipoxygenase activity (LTB4) in human peripheral blood mononuclear leukocytes (Assay 6); format: cell-based; details: human PBMLs, A23187 30 μM, read-out: Inhibition of 5-LO (%)
T1 construct: endogenous in cells; host or cells: human peripheral blood mononuclear leukocytes (PBMLs)
T1 sequence (P09917 1-674): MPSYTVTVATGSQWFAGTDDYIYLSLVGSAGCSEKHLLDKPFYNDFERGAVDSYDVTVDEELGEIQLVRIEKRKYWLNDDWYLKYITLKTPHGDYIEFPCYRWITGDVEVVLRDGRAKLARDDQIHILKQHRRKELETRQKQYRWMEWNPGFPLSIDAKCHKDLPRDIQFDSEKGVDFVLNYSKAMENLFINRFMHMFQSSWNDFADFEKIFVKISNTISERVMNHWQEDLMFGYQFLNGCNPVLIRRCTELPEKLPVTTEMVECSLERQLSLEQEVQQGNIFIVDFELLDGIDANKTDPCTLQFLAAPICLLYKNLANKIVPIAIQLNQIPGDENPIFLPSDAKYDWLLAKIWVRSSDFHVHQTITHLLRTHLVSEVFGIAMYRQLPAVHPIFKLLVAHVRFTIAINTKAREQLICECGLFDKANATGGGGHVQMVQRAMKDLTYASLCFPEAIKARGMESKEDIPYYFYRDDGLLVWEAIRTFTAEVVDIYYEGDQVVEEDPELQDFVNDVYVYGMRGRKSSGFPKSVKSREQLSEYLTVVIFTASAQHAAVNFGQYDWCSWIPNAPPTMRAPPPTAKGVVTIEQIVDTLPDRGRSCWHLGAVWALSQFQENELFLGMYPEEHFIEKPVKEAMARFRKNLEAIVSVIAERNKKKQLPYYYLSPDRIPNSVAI
Description: Human peripheral blood mononuclear leukocytes (PBMLs) were isolated using a Ficoll-Paque density gradient. Human peripheral blood mononuclear leukocytes (5×10^6 cells) were incubated with A23187 (30 μM), a divalent cation ionophore used to initiate the biosynthesis of […], and with vehicle (0.1% DMSO) or test compound (3 and 30 μM) in Hank's balanced salt solution (HBBS) buffer, pH 7.4 at 37° C. for 15 min. The PBML solution was neutralized with NaOH (1 N) and centrifuged at 1000 g for 10 min and the supernatant collected. The concentration of leukotriene B4 (LTB4) in the supernatant was measured using an enzyme immunoassay kit (Assay Design Inc.). A reduction in the concentration of LTB4 indicated an inhibition of the enzyme 5-lipoxygenase (Table 11).

[7] = biological target: TRPV1 receptor (Rattus norvegicus, UniProt O35433); assay: TRPV1 modulation in DRG neurones: CGRP release in absence and presence of capsaicin (Assay 2); format: cell-based; design: The culture used for this experiment contained sensory neurones, Schwann cells and fibroblasts; endogenous in cells; host or cells: primary rat DRG sensory neurone culture (with Schwann cells and fibroblasts); details: 20 min; for inhibition at 3 µM: 3 μM with capsaicin 1 μM; for inhibition at 3 µM / inhibition at 30 µM: −ve: inhibition, +ve: potentiation of capsaicin response, read-out: Effect of test compounds on capsaicin (1 μM)-induced CGRP release (%); for inhibition at 30 µM: 30 μM with capsaicin 1 μM; for Emax at 3 µM: test compound alone 3 μM; for Emax at 3 µM / Emax at 30 µM: rat DRG sensory neurones, read-out: CGRP release (% of capsaicin (1 μM) response); for Emax at 30 µM: test compound alone 30 μM
TRPV1 receptor, sequence (O35433 whole entry): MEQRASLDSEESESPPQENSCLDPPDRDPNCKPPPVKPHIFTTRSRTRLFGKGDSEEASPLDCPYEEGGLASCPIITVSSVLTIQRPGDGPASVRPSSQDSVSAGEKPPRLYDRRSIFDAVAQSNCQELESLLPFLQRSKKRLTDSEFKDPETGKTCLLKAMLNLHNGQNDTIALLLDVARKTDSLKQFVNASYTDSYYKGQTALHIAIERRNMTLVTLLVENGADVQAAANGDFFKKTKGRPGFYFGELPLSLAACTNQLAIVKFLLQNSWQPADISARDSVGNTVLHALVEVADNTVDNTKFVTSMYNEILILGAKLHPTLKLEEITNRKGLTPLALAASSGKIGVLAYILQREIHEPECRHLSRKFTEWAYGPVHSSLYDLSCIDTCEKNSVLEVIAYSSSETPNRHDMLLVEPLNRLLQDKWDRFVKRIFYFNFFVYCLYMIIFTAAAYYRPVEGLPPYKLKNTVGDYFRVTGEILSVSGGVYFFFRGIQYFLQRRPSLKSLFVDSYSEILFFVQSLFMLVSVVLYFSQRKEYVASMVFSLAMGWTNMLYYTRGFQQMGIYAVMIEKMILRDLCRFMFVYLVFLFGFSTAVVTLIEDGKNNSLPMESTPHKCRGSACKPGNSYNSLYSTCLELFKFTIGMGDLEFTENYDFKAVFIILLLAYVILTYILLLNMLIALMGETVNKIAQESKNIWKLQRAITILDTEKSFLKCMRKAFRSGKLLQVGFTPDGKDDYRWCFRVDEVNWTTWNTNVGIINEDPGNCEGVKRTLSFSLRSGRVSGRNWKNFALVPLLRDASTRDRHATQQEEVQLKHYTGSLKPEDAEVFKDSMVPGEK

| SMILES | inhibition at 3 µM [1] [%] | inhibition at 30 µM [1] [%] | inhibition at 3 µM [2] [%] | inhibition at 30 µM [2] [%] | inhibition at 3 µM [3] [%] | inhibition at 30 µM [3] [%] | inhibition at 3 µM [4] [%] | inhibition at 30 µM [4] [%] | Decrease in cell viability (%) ([5]; 3 μM) | Decrease in cell viability (%) ([5]; 30 μM) | inhibition at 3 µM [6] [%] | inhibition at 30 µM [6] [%] | inhibition at 3 µM [7] [%] | inhibition at 30 µM [7] [%] | Emax at 3 µM [7] [%] | Emax at 30 µM [7] [%] |
| --- | --- | --- | --- | --- | --- | --- | --- | --- | --- | --- | --- | --- | --- | --- | --- | --- |
| COc1cc(CCC(=O)C(C)C(=O)C2(C)CC2)ccc1O (stereo not shown) [Compound 7, 5-(4-Hydroxy-3-methoxylphenyl)-2-methyl-1-(1-methylcyclopropyl)-pentane-1,3-dione] | 4 | 12 | 0 | 26 | -8 | 9 | 47 | 94 | −4 | 4 | 24 | 63 | 19 | 41 | 35 | 76 |
| COc1cc(CCC(=O)CC(=O)c2cccc(Cl)c2)ccc1O [Compound 22, 1-(3-Chlorophenyl)-5-(4-hydroxy-3-methoxyphenyl)pentane-1,3-dione] | 11 | 65 | 18 | 94 | -5 | 25 | 93 | 100 | 3 | 9 | 62 | 98 | 2 | -58 | 60 | 163 |
| COc1cc(CCC(=O)C(Cc2ccccc2)C(=O)c2ccccc2)ccc1O (stereo not shown) [Compound 13, 2-Benzyl-5-(4-hydroxy-3-methoxyphenyl)-1-phenylpentane-1,3-dione] | 6 | 78 | 15 | 66 | 14 | 77 | 73 | 99 | −4 | −3 | 51 | 98 | 48 | -67 | 75 | 245 |
| COc1cc(CCC(=O)C(C)(C)C(=O)C(C)(C)C)ccc1O [Compound 71, 1-(4-Hydroxy-3-methoxyphenyl)-4,4,6,6-tetramethylheptane-3,5-dione] | 0 | 35 | 3 | 53 | -1 | 20 | 41 | 95 | −1 | 11 | 6 | 48 | 26 | 29 | 48 | 38 |
| COc1cc(CCC(=O)CC(=O)c2ccc(O)c(OC)c2)ccc1O [Compound 15, 1,5-Bis(4-hydroxy-3-methoxyphenyl)-pentane-1,3-dione] | 0 | 13 | 0 | 54 | 13 | 29 | 49 | 95 | −2 | −1 | 16 | 63 | 18 | 27 | 34 | 34 |
| COc1cc(CCC(=O)CC(=O)c2ccccc2-c2ccccc2)ccc1O [Compound 19, 1-(Biphenyl-2-yl)-5-(4-hydroxy-3-methoxyphenyl)-pentane-1,3-dione] | 8 | 81 | 13 | 39 | 57 | 97 | 73 | 100 | −1 | 57 | 48 | 99 | -29 | -159 | 139 | 286 |
| COc1cc(CCC(=O)CC(=O)c2ccccc2C)ccc1O [Compound 84, 5-(4-Hydroxy-3-methoxyphenyl)-1-o-tolylpentane-1,3-dione] | 19 | 66 | 22 | 100 | 6 | 65 | 101 | 102 | 3 | 12 | 77 | 98 | 32 | 26 | 54 | 74 |
